Experimental data published in patent US12291519B2, “2-hydroxycycloalkane-1-carbamoyl” (Idorsia Pharmaceuticals Ltd, priority 2019, dated 2025).

Experiments:
human Gal-3 (hGal-3) = human Gal-3 (hGal-3) (Homo sapiens (Human), UniProt P17931); experiment: Competitive binding assay: biotinylated hGal-3 binding to microplate-adsorbed asialofetuin (ASF); conditions: Activity on hGal-3; binding of biotinylated hGal-3 to ASF-coated plates; mean values
How it was run: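 Serially diluted compounds competed with biotinylated human Gal-3 for binding to plate-adsorbed asialofetuin over 3 h at 4 °C. Bound Gal-3 was detected with streptavidin-peroxidase (80 ng/mL, 1 h, 4 °C) and ABTS substrate. IC50 values are means of several measurements.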

human Gal-1 (hGal-1) = experiment: Competitive binding assay: biotinylated hGal-1 binding to microplate-adsorbed asialofetuin (ASF); conditions: Activity on hGal-1; binding of biotinylated hGal-1 to ASF-coated plates; mean values
human Gal-1 (hGal-1), sequence (P09382 2-135 limits assumed): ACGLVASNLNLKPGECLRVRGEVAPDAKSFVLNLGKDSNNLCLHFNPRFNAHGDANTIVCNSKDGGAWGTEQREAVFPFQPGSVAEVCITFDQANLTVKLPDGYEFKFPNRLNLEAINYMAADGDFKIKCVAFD
How it was run: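 Biotinylated hGal-1 (300–1000 ng/mL; optionally a cysteine-free all-serine variant) incubated 3 h at 4 °C with compound on asialofetuin-coated plates, then streptavidin-peroxidase 1 h at 4 °C. ABTS readout at OD 410 nm after 30–45 min; IC50 given as mean of several runs.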

human Gal-3 (hGal-3), sequence (P17931 whole entry): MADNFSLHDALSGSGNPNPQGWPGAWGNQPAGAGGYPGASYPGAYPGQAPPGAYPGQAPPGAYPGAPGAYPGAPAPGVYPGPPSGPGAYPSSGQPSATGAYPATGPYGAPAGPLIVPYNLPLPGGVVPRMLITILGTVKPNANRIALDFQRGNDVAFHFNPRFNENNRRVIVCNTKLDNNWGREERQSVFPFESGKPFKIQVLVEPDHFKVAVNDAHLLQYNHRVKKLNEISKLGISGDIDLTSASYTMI

| Compound | IC50 (human Gal-3 (hGal-3)) | IC50 (human Gal-1 (hGal-1)) |
| --- | --- | --- |
| O=C([C@@H]1O[C@H](CO)[C@H](O)[C@H](n2cc(-c3cc(F)c(F)c(F)c3)nn2)[C@H]1O)N(CCc1ccccc1)[C@H]1CCCC[C@@H]1O [Example 4, (2R,3R,4S,5R,6R)-3,5-dihydroxy-N-((1S,2S)-2-hydroxycyclohexyl)-6-(hydroxymethyl)-N-phenethyl-4-(4-(3,4,5-trifluorophenyl)-1H-1,2,3-triazol-1-yl)tetrahydro-2H-pyran-2-carboxamide] | 677 nM | > 100000 nM |
| CO[C@@H]1[C@@H](n2cc(-c3cc(F)c(F)c(F)c3)nn2)[C@@H](O)[C@@H](CO)O[C@H]1C(=O)N(c1ccc(C(F)(F)F)c(Cl)c1)[C@H]1CCCC[C@@H]1O [Example 91, (2R,3R,4S,5R,6R)-N-(3-chloro-4-(trifluoromethyl)phenyl)-5-hydroxy-N-((1S,2S)-2-hydroxycyclohexyl)-6-(hydroxymethyl)-3-methoxy-4-(4-(3,4,5-trifluorophenyl)-1H-1,2,3-triazol-1-yl)tetrahydro-2H-pyran-2-carboxamide] | 147 nM | 1540 nM |
| O=C([C@@H]1O[C@H](CO)[C@H](O)[C@H](n2cc(-c3cc(F)c(F)c(F)c3)nn2)[C@H]1O)N(Cc1cnoc1)[C@H]1CCCC[C@@H]1O [Example 16, (2R,3R,4S,5R,6R)-3,5-dihydroxy-N-((1S,2S)-2-hydroxycyclohexyl)-6-(hydroxymethyl)-N-(isoxazol-4-ylmethyl)-4-(4-(3,4,5-trifluorophenyl)-1H-1,2,3-triazol-1-yl)tetrahydro-2H-pyran-2-carboxamide] | 476 nM | 28300 nM |
| CO[C@@H]1[C@@H](n2cc(-c3cc(F)c(F)c(F)c3)nn2)[C@@H](O)[C@@H](CO)O[C@H]1C(=O)N(Cc1cc(C)nn1C)[C@H]1CCCC[C@@H]1O [Example 47, (2R,3R,4S,5R,6R)-N-((1,3-dimethyl-1H-pyrazol-5-yl)methyl)-5-hydroxy-N-((1S,2S)-2-hydroxycyclohexyl)-6-(hydroxymethyl)-3-methoxy-4-(4-(3,4,5-trifluorophenyl)-1H-1,2,3-triazol-1-yl)tetrahydro-2H-pyran-2-carboxamide] | 151 nM | 1040 nM |
| COc1cccc(OC)c1CN(C(=O)[C@@H]1O[C@H](CO)[C@H](O)[C@H](n2cc(-c3cc(F)c(F)c(F)c3)nn2)[C@H]1OC)[C@H]1CCCC[C@@H]1O [Example 40, (2R,3R,4S,5R,6R)-N-(2,6-dimethoxybenzyl)-5-hydroxy-N-((1S,2S)-2-hydroxycyclohexyl)-6-(hydroxymethyl)-3-methoxy-4-(4-(3,4,5-trifluorophenyl)-1H-1,2,3-triazol-1-yl)tetrahydro-2H-pyran-2-carboxamide] | 199 nM | 4670 nM |

The next compounds have a lower IC50 (human Gal-3 (hGal-3)) than those just listed; values first:

| IC50 (human Gal-3 (hGal-3)) | IC50 (human Gal-1 (hGal-1)) | Compound |
| --- | --- | --- |
| 127 nM | 962 nM | CO[C@@H]1[C@@H](n2cc(-c3cc(F)c(F)c(F)c3)nn2)[C@@H](O)[C@@H](CO)O[C@H]1C(=O)N(Cc1sccc1C)[C@H]1CCCC[C@@H]1O [Example 33, (2R,3R,4S,5R,6R)-5-hydroxy-N-((1S,2S)-2-hydroxycyclohexyl)-6-(hydroxymethyl)-3-methoxy-N-((3-methylthiophen-2-yl)methyl)-4-(4-(3,4,5-trifluorophenyl)-1H-1,2,3-triazol-1-yl)tetrahydro-2H-pyran-2-carboxamide] |
| 50 nM | 259 nM | CO[C@@H]1[C@@H](n2cc(-c3cccc(F)c3C)nn2)[C@@H](O)[C@@H](CO)O[C@H]1C(=O)N(c1cc(Cl)cc(C#N)c1)[C@H]1CCCC[C@@H]1O [Example 75, (2R,3R,4S,5R,6R)-N-(3-chloro-5-cyanophenyl)-4-(4-(3-fluoro-2-methylphenyl)-1H-1,2,3-triazol-1-yl)-5-hydroxy-N-((1S,2S)-2-hydroxycyclohexyl)-6-(hydroxymethyl)-3-methoxytetrahydro-2H-pyran-2-carboxamide] |
| 43 nM | 935 nM | CO[C@@H]1[C@@H](n2cc(-c3cc(F)cc(Cl)c3)nn2)[C@@H](O)[C@@H](CO)O[C@H]1C(=O)N(c1cccc(Br)c1)[C@H]1CCCC[C@@H]1O [Example 138, (2R,3R,4S,5R,6R)-N-(3-bromophenyl)-4-(4-(3-chloro-5-fluorophenyl)-1H-1,2,3-triazol-1-yl)-5-hydroxy-N-((1S,2S)-2-hydroxycyclohexyl)-6-(hydroxymethyl)-3-methoxytetrahydro-2H-pyran-2-carboxamide] |
| 43 nM | 4750 nM | CO[C@@H]1[C@@H](n2cc(-c3cc(F)c(F)c(F)c3)nn2)[C@@H](O)[C@@H](CO)O[C@H]1C(=O)N(c1cccc(C)c1)[C@H]1CCCC[C@@H]1O [Example 122, (2R,3R,4S,5R,6R)-5-hydroxy-N-((1S,2S)-2-hydroxycyclohexyl)-6-(hydroxymethyl)-3-methoxy-N-(m-tolyl)-4-(4-(3,4,5-trifluorophenyl)-1H-1,2,3-triazol-1-yl)tetrahydro-2H-pyran-2-carboxamide] |
| 35 nM | 1690 nM | CO[C@@H]1[C@@H](n2cc(-c3cc(F)cc(F)c3)nn2)[C@@H](O)[C@@H](CO)O[C@H]1C(=O)N(c1cccc(Cl)c1)[C@H]1CCCC[C@@H]1O [Example 85, (2R,3R,4S,5R,6R)-N-(3-chlorophenyl)-4-(4-(3,5-difluorophenyl)-1H-1,2,3-triazol-1-yl)-5-hydroxy-N-((1S,2S)-2-hydroxycyclohexyl)-6-(hydroxymethyl)-3-methoxytetrahydro-2H-pyran-2-carboxamide] |
| 32 nM | 141 nM | CO[C@@H]1[C@@H](n2cc(-c3cc(F)c(F)c(Cl)c3)nn2)[C@@H](O)[C@@H](CO)O[C@H]1C(=O)N(c1cc(Cl)cc(Cl)c1)[C@H]1CCCC[C@@H]1O [Example 129, (2R,3R,4S,5R,6R)-4-(4-(3-chloro-4,5-difluorophenyl)-1H-1,2,3-triazol-1-yl)-N-(3,5-dichlorophenyl)-5-hydroxy-N-((1S,2S)-2-hydroxycyclohexyl)-6-(hydroxymethyl)-3-methoxytetrahydro-2H-pyran-2-carboxamide] |
| 26 nM | 1950 nM | CO[C@@H]1[C@@H](n2cc(-c3cc(F)c(F)c(F)c3)nn2)[C@@H](O)[C@@H](CO)O[C@H]1C(=O)N(c1cccc(C(F)(F)F)c1)[C@H]1CCCC[C@@H]1O [Example 116, (2R,3R,4S,5R,6R)-5-hydroxy-N-((1S,2S)-2-hydroxycyclohexyl)-6-(hydroxymethyl)-3-methoxy-N-(3-(trifluoromethyl)phenyl)-4-(4-(3,4,5-trifluorophenyl)-1H-1,2,3-triazol-1-yl)tetrahydro-2H-pyran-2-carboxamide] |
| 7 nM | 173 nM | [2H]C([2H])([2H])O[C@@H]1[C@@H](n2cc(-c3cc(F)c(F)c(F)c3)nn2)[C@@H](O)[C@@H](CO)O[C@H]1C(=O)N(c1cc(Cl)cc(Cl)c1)[C@H]1CCCC[C@@H]1O [Example 87, (2R,3R,4S,5R,6R)-N-(3,5-dichlorophenyl)-5-hydroxy-N-((1S,2S)-2-hydroxycyclohexyl)-6-(hydroxymethyl)-3-(methoxy-d3)-4-(4-(3,4,5-trifluorophenyl)-1H-1,2,3-triazol-1-yl)tetrahydro-2H-pyran-2-carboxamide] |
